According to PubChem BioAssay AID2060625 (Molecular Pharmacology Branch, DTP, NCI, 2025):

System: 186277-243-T-J2-PDC spheroids with HUVEC/MSC, viability
Experiment: Anticancer human tumor 186277-243-T-J2-PDC patient-derived colon adenocarcinoma cell line growth inhibition [CLK]
Conditions: for IC50: curve of first compound; for viability, T/C: stronger effect = lower value
How it was run: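 Patient-derived tumor cells grown as complex spheroids with HUVEC endothelial cells and mesenchymal stem cells, treated with drug combinations. Concentrations descend in half-log steps from near clinical Cmax, or from 10 microM if Cmax unknown.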
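Further: compound exposure lasted seven days before readout.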
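Wherever viability, T/C is given: 100% = DMSO vehicle control wells.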

C=CC(=O)Nc1cc(Nc2nccc(-c3cn(C)c4ccccc34)n2)c(OC)cc1N(C)CCN(C)C + CN1CCN(c2cc(C(=O)Nc3cc4cc(-c5cnn(C)c5)ccc4cn3)ccn2)CC1
IC50 (second compound 0.0316 µM): > 300 nM
IC50 (second compound 0.1 µM): > 300 nM
IC50 (second compound 0.316 µM): < 0.949 nM
IC50 (second compound 1 µM): < 0.949 nM
IC50 (second compound 3.16 µM): < 0.949 nM
IC50 (second compound 10 µM): < 0.949 nM
viability, T/C (second compound 0.0316 µM, first compound 0.000949 µM): 92.1%
viability, T/C (second compound 0.0316 µM, first compound 0.003 µM): 92.6%
viability, T/C (second compound 0.0316 µM, first compound 0.00949 µM): 90.9%
viability, T/C (second compound 0.0316 µM, first compound 0.03 µM): 78.2%
viability, T/C (second compound 0.0316 µM, first compound 0.0949 µM): 83.8%
viability, T/C (second compound 0.0316 µM, first compound 0.3 µM): 82.2%
viability, T/C (second compound 0.1 µM, first compound 0.000949 µM): 87%
viability, T/C (second compound 0.1 µM, first compound 0.003 µM): 75.6%
viability, T/C (second compound 0.1 µM, first compound 0.00949 µM): 86.8%
viability, T/C (second compound 0.1 µM, first compound 0.03 µM): 92.3%
viability, T/C (second compound 0.1 µM, first compound 0.0949 µM): 70.9%
viability, T/C (second compound 0.1 µM, first compound 0.3 µM): 64%
viability, T/C (second compound 0.316 µM, first compound 0.000949 µM): 25.9%
viability, T/C (second compound 0.316 µM, first compound 0.003 µM): 26.1%
viability, T/C (second compound 0.316 µM, first compound 0.00949 µM): 25.2%
viability, T/C (second compound 0.316 µM, first compound 0.03 µM): 21.2%
viability, T/C (second compound 0.316 µM, first compound 0.0949 µM): 20.8%
viability, T/C (second compound 0.316 µM, first compound 0.3 µM): 14%
viability, T/C (second compound 1 µM, first compound 0.000949 µM): 0.45%
viability, T/C (second compound 1 µM, first compound 0.003 µM): 0.44%
viability, T/C (second compound 1 µM, first compound 0.00949 µM): 1.59%
viability, T/C (second compound 1 µM, first compound 0.03 µM): 0.36%
viability, T/C (second compound 1 µM, first compound 0.0949 µM): 0.85%
viability, T/C (second compound 1 µM, first compound 0.3 µM): 0.32%
viability, T/C (second compound 3.16 µM, first compound 0.000949 µM): 1.64%
viability, T/C (second compound 3.16 µM, first compound 0.003 µM): 1.27%
viability, T/C (second compound 3.16 µM, first compound 0.00949 µM): 2.11%
viability, T/C (second compound 3.16 µM, first compound 0.03 µM): 0.98%
viability, T/C (second compound 3.16 µM, first compound 0.0949 µM): 0.87%
viability, T/C (second compound 3.16 µM, first compound 0.3 µM): 0.74%
viability, T/C (second compound 10 µM, first compound 0.000949 µM): 0.65%
viability, T/C (second compound 10 µM, first compound 0.003 µM): 0.71%
viability, T/C (second compound 10 µM, first compound 0.00949 µM): 0.97%
viability, T/C (second compound 10 µM, first compound 0.03 µM): 0.86%
viability, T/C (second compound 10 µM, first compound 0.0949 µM): 0.61%
viability, T/C (second compound 10 µM, first compound 0.3 µM): 1.03%
